According to patent publication US7550457B2, “Pharmaceutically effective compounds” (CytRx Corporation, priority 2002, dated 2009):

Experiments:
[1] = system: thoracic aorta of SH rats; test: Vaso-relaxing effect on the thoracic aorta of SH rats (in vitro testing after one month treatment); format: in vivo, rat; conditions: aorta rings of SH rats treated for one month (dose per compound as in table), contracted with 10^-6 M methoxamine, unit assumed; for vessel relaxing effect, Ach dose 10^-5 M: acetylcholine 10^-5 M; for vessel relaxing effect, Ach dose 10^-6 M: acetylcholine 10^-6 M; for vessel relaxing effect, Ach dose 10^-4 M: acetylcholine 10^-4 M
Protocol: In the following, we give the results of the test of blood vessel relaxing effect, performed in vitro on rat vessels, and also the morphological results of the thoracic aorta.
(§1) Three-month-old, genetically hypertonic (SH) Wistar Okamoto rats were treated for one month with various test compounds. Thereafter the functional and morphological tests were performed.
The Vaso-relaxing Effect of the Compounds of the Invention on the Thoracic Aorta of SH Rats (In Vitro Testing)
The test was performed by the method known from the literature [Japan J. Pharmacol., 59, 339-347 (1992)]. The SH rats were anesthetized with Nembutal (40 mg/kg, i. p.), then the thoracic aorta was removed and placed in oxygenized (95% O2+5% CO2) Krebs-Henseleit solution. The composition of the solution (mM): NaCl 118, KCI 4, 7, CaCl2 2,52, MgSO4 1,64, NaHCO3 24,88, KH2PO4 1,18, glucose 5,5. The 3-mm-long aorta rings were suspended in a 20 ml organ bath of 37° C. The resting tension was 1 g, which was maintained throughout the equilibration. During the 1 hour equilibration, the medium was changed in every 20 minutes. The vessels were contracted with 10^−6 M methoxamine (approximately 80% of maximal contraction). After reaching the maximal contraction, we tested the vasodilation resulting as the effect of the acetylcholine (Ach) (10^−6−10^−4 M), which informed us about the condition of the endothelium of the vessel wall. The contraction force was measured by an isometric strain gauge (SG-01D, Experimentia Ltd), and was registered on an OH-850 polygraph (Radelkis). At this time again, 5,6-dihydro-5-(1-piperidinyl)-methyl-3-(3-pyridyl)-4H-1,2,4-oxadiazine as described in WO 98/06400 was used as a reference compound.

[2] = system: thoracic aorta of SH rats; test: Morphological testing of the thoracic aortas with electron microscopy; format: in vivo, rat; set-up: key: 1: no regeneration was observable; 2: weak; 3: average; 4: good; 5: strong regeneration; conditions: SH rats treated p. o. for one month (dose per compound as in table), scale of 1 to 5, electron microscopy of thoracic aorta endothelium
Protocol: as §1
Morphological Testing of the Thoracic Aortas with Electron Microscopy
The test was performed according to the procedure known from the literature (Br. J. of Pharmacol., 1995; 115, 415-420). 1 mm^2 pieces of the aorta wall was cut out of the thoracic aorta of the rats, and were then fixed with 2.5% glutaraldehyde at room temperature for 2 hours. This was followed by a post-fixation with 1% osmium tetroxide for 1 hour. Afterwards, the tissue pieces were dehydrated with ethanol, and embedded in Durcupan ACM. The samples were evaluated qualitatively based on the images recorded on a Hitachi 7100 electron microscope.
On the scale, 1 was used to refer to cases where no regeneration was observable, 2 refers to weak, 3 to average, 4 to good, and 5 to strong regeneration.

[3] = system: human umbilical vein endothelial cells (HUVEC); test: Wounding migration assay in endothelial cell culture; format: cell-based; conditions: wounded HUVEC monolayer, 24 hours after wounding, test agent 10^-6 M
Protocol: Wounding Migration Assay in Endothelial Cell Culture
The effect of the compounds of the invention on the wounded monolayers of human umbilical vein endothelial cells (HUVEC) were studied in a cell culture system (in vitro). After reaching confluence, the HUVEC cells were wounded according to the method of Yamamura et al. (J. Surgical Res. 63, 349-354, 1996). The number of migrated cells were registered using computerized image analysis 24 hours after wounding in the absence and presence of the active agents under testing in a concentration of 10^−6 M. The active ingredient described in publication no. WO 98/06400, namely 5,6-dihydro-5-(1-piperidinyl)-methyl-3-(3-pyridyl)-4H-1,2,4-oxadiazine was used as reference compound.

SMILES | vessel relaxing effect, Ach dose 10^-5 M [1] | vessel relaxing effect, Ach dose 10^-6 M [1] | Degree of regeneration [2] | vessel relaxing effect, Ach dose 10^-4 M [1] | number of migrated cells, cell/mm^2 24 hours [3]
O=C1CCCCN1CC1CON=C(c2cccnc2)N1 (single isomer, unassigned) [Compound no. 8, (R) or (S)-5,6-dihydro-5-[(2-oxo-1-piperidinyl)methyl]-3-(3-pyridyl)-4H-1,2,4-oxadiazine] | 88% |  |  |  | 
[O-][n+]1cccc(C2=NOCC(CN3CCCCC3)N2)c1 (single isomer, unassigned; (+)) [Compound no. 9, (+)-5,6-dihydro-5-[(1-piperidinyl)methyl]-3-(1-oxido-3-pyridyl)-4H-1,2,4-oxadiazine] |  | 87% |  |  | 
O.O.O=[N+]([O-])c1cccc(C(Cl)=NOCCC[N+]2([O-])CCCCC2)c1 [Compound no. 4, N-[3-(1-oxido-1-piperidinyl)propoxy]-3-nitro-benzimidoyl-chloride dihydrate] | 84.9% | 82.5% | 5 | 88.1% | 45 cell/mm^2
OC1CCN(CC2CON=C(c3cccnc3)N2)CC1 (centres unmarked) [Compound no. 11, 5,6-dihydro-5-[(4-hydroxy-1-piperidinyl)methyl]-3-(3-pyridyl)-4H-1,2,4-oxadiazine] | 85.1% | 79.7% | 4 | 86% | 51 cell/mm^2
Cl.ClC(=NOCC(Cl)CN1CCCCC1)c1ccccc1 (centres unmarked) [Compound no. 12, N-[2-chloro-3-(1-piperidinyl)propoxy]-3-benzimidoyl-chloride hydrochloride] | 83.5% | 82.3% | 3 | 80.4% | 60 cell/mm^2
O=C(NOCC(O)CN1CCCCC1)c1ccc[n+]([O-])c1 (centres unmarked) [Compound no. 13, N-[2-hydroxy-3-(1-piperidinyl)propoxy]-pyridin-1-oxide-3-carboxamide] | 90.3% | 88.4% | 4 | 95.2% | 54 cell/mm^2
c1cncc(C2=NOCC(CN3CCCCC3)N2)c1 (centres unmarked) [Reference, 5,6-dihydro-5-(1-piperidinyl)-methyl-3-(3-pyridyl)-4H-1,2,4-oxadiazine, reference compound] | 80.2% | 77.4% |  | 81.7% | 30 cell/mm^2
